For assay [1], the system named is ERK2. The following applies: cited from earlier work. From the text: While the biological relevance of this finding is debatable, care should be taken while analyzing in vitro data from studies that employ F-site and D-site containing ligands simultaneously.
In assay [2] the target is T1, ppERK2 (D-recruitment site, DRS) (Rattus norvegicus, UniProt P63086).
T1 construct: made in house
Briefly: NMR 15N,1H TROSY titration of ppERK2 with peptide ligand (CSPs; DRS affinity by two-site fit). It counts as binding, rat (rat ERK2 numbering used throughout). The settings on record: 130 μM ppERK2, 50 mM HEPES pH 6.8, KIM15-31 up to 992.0 μM. As to the method: Spectral perturbations on ppERK2 were assessed from ^15N, ^1H TROSY experiments at 600 MHz and 25.0 °C using 1024 and 128 complex points and sweep-widths of 15 and 33 ppm in the ^1H and ^15N dimensions, respectively. […] A 130 μM sample of ppERK2 in a buffer containing 50 mM HEPES pH 6.8, 150 mM NaCl, 200 μM EDTA and 2 mM DTT was titrated with the following amounts of KIM15-31: 49.2, 99,8, 149.0, 296.2, 450.6, 992.0 μM.

The target in assay [3] is T2, ppERK2 (Rattus norvegicus, UniProt P63086).
T2 construct: made in house
T2 sequence (P63086 whole entry): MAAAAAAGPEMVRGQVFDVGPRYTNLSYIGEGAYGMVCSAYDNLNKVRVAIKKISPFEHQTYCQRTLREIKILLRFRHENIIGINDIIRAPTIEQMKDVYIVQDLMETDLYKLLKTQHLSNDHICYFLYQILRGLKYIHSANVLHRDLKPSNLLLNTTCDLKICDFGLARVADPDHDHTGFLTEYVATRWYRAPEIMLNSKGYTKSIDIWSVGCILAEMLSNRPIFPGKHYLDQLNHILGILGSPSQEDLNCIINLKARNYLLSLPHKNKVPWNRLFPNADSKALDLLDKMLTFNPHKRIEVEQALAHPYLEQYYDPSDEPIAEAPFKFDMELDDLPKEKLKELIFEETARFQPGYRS
Briefly: Fluorescence-based kinase assay, phosphorylation of ERK-sensor-D1 by ppERK2. The format is biochemical, rat (rat ERK2 numbering used throughout). The following applies: for Km: 2 nM ppERK2, 25 mM HEPES pH 7.5, 10 mM MgCl2, 28 °C, fluorescence 360/492 nm; for Vmax: 2 nM ppERK2, 25 mM HEPES pH 7.5, 28 °C. The procedure:
The ERK-sensor-D1 peptide[57] […] The reaction was initiated after 1 hour of pre-incubation at room temperature by adding 10 μL of 5 mM Mg^2+/ATP to 90 μL of assay mixture and the fluorescence intensity was recorded at each time point for a total of 6 minutes on a Fluorolog fluorimeter (Horiba Jobin Yvon) in quartz cuvettes (Starna Cells) with a 10 mm path length and a reaction volume of 100 μL. The sample was excited at 360 nm and fluorescence was monitored at 492 nm using excitation and emission slit widths of 3 nm. The change in fluorescence was related to the progression of the reaction using a previously determined conversion factor[58].

Results on five substances are retold here after paper PMC4459106 (Scientific Reports, 2015).

A word on the Km: it is the substrate concentration at which the rate is half of its maximum.

T1 sequence (P63086 whole entry): as above

For the substance “Ets-1: transcription factor possessing neither a canonical D-site nor F-site”, in assay [1], the “binding to ERK2” value is “efficiently bind ERK2”.

With “KIM15-31: DRS specific ligand (TLSLGAAMTQPPPEKTP; UniProt P35236 15-31, looked up, fragment)”, the “CSPs on titration of ppERK2 with KIM15-31” value in assay [2] is “the only significant CSPs are seen at the DRS and no significant long-range perturbations including at the FRS, are noted”. Take “PEA-15: anti-apoptotic small adaptor protein without canonical D-site or F-site sequences”: the “binding to ERK2” value in assay [1] is given as “efficiently bind ERK2”. Regarding “QRKTLQRRNLKGLNLNL-X3-TGPLSPC-Sox-PF [ERK-sensor-D1]”, in assay [3] (absence of Elk387-399), the Michaelis constant (Km) is 10.1 ± 0.8 µM and the Vmax is recorded as 21.4 ± 0.5 nM phosphate/second. Besides, in assay [3] (presence of 100 μM Elk387-399), the Km was 22.7 ± 2.8 µM and the Vmax was determined as 23.4 ± 1.1 nM phosphate/second. Regarding c-Fos: F-site containing c-Fos, in assay [1] (F-site containing c-Fos, DRS-mutant vs native ERK2), the “increase in apparent KD of interaction with ppERK2 on DRS mutation” value is on record as 2-3 -fold.
